Converted amounts (≈) assume the structure as drawn.
Key:
[1] = Solubility of the raw polyphenols (A) and (B) in water at 25° C.; settings: for Solubility of (B) in water (25° C.): water-soluble polyphenol (B) alone; for Solubility of (A) in water (25° C.): hardly water-soluble polyphenol (A) alone
Text: (§1) The term “hardly water-soluble polyphenol” used in the present invention refers to the one having a poor solubility in water. […] The solubility represents herein a gram number of the solute being dissolved in 1 L of the solution with a unit of [g/L].

physchem = settings: 25 °C, water
Text: as §1

| Molecule | Solubility of (B) in water (25° C.) [1] | Solubility of (A) in water (25° C.) [1] | further results |
| --- | --- | --- | --- |
| O=C(O[C@@H]1Cc2c(O)cc(O)cc2O[C@@H]1c1cc(O)c(O)c(O)c1)c1cc(O)c(O)c(O)c1 [Catechin, epigallocatechin gallate] | 15 g/L | – | – |
| O=c1oc2c(O)c(O)cc3c(=O)oc4c(O)c(O)cc1c4c23 [Ellagic acid, ellagic acid] | – | 4 µg/mL | solubility ([1]; 25 °C): 4 µg/mL (≈ 13.2 µM) |
| COc1ccc([C@@H]2CC(=O)c3c(O)cc(O[C@@H]4O[C@H](CO[C@@H]5O[C@@H](C)[C@H](O)[C@@H](O)[C@H]5O)[C@@H](O)[C@H](O)[C@H]4O)cc3O2)cc1O [Hesperidin, hesperidin] | – | 50 µg/mL | – |
| c1cc2c(cc1[C@H]1OC[C@H]3[C@@H]1CO[C@@H]3c1ccc3c(c1)OCO3)OCO2 [Sesamin, sesamin] | – | – | solubility (physchem): 0.14 µg/mL (≈ 0.395 µM) |
| glucosylhesperidin | ≥ 300 or g/L | – | – |

— patent US9669047B2, “Method for producing polyphenol composition” (KAO CORPORATION, priority 2012, dated 2017)
